Test systems include HCT-15 colon; KM12 colon; M14 melanoma; MDA-MB-231 breast; OVCAR-5 ovarian; RXF 393 renal; SF-268 CNS; U251 CNS; UO-31 renal; SK-OV-3 ovarian.
Assay in all cases: NCI anticancer screen, dose series, 48 h

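96-well plates; 48 h exposure; 5 concentrations. Endpoints by linear interpolation between flanking doses. Not reached: highest tested concentration assigned. Here, GI50 denotes the concentration required for 50% inhibition of growth. Definition used: TGI = concentration required for complete inhibition of growth.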 Some results are limits rather than exact numbers.

In the case of `Cc1cc(=O)oc2c(CN(CCCl)CCCl)c(O)ccc12`, the TGI in the assay with HCT-15 colon, in the assay on KM12 colon, in the assay with M14 melanoma, in the assay on MDA-MB-231 breast, with OVCAR-5 ovarian and in the assay with RXF 393 renal was above 100 µM each time. Moreover, the TGI with SF-268 CNS, with U251 CNS and with UO-31 renal was above 100 µM in each case.
`COc1ccc(Nc2ccnc3cc(Cl)ccc23)cc1CN(CCCl)CCCl`: the GI50 in the assay with HCT-15 colon was 1.85 µM; in the assay on KM12 colon, 2.21 µM; in the assay with M14 melanoma, 2.14 µM; with MDA-MB-231 breast, 2.45 µM; in the assay on OVCAR-5 ovarian it was 2.84 µM; in the assay with SF-268 CNS, 1.15 µM. Further, the GI50 in the assay on SK-OV-3 ovarian was 1.56 µM; in the assay on U251 CNS, 1.79 µM. The TGI in the assay on HCT-15 colon is 6.44 µM; with KM12 colon, 9.75 µM; in the assay on M14 melanoma, 7.92 µM; in the assay on MDA-MB-231 breast it was 15.9 µM; in the assay with OVCAR-5 ovarian, 5.94 µM; in the assay with SF-268 CNS, 4.89 µM. Also, the TGI with U251 CNS was above 100 µM.
`CN(C)CCSc1nccc(-c2ccc(-c3ccnc(SCCN(C)C)n3)s2)n1`: the TGI amounted to 17.3 µM with HCT-15 colon; 16 µM with KM12 colon; 29.4 µM in the assay on OVCAR-5 ovarian; 9.99 µM in the assay on RXF 393 renal; 22 µM in the assay with SF-268 CNS; 47.2 µM with SK-OV-3 ovarian. Further, the TGI in the assay with U251 CNS came out at 26 µM; in the assay with UO-31 renal it was 16.6 µM.
Regarding `CC(=O)O[C@H]1CC[C@]2(C=O)[C@H]3CC[C@]4(C)[C@@H](C5=CC(=O)OC5)CC[C@]4(O)[C@@H]3CC[C@]2(O)C1`, the TGI in the assay on HCT-15 colon came to 0.455 µM; in the assay on M14 melanoma, 1.22 µM; in the assay with MDA-MB-231 breast, 3.14 µM; in the assay with OVCAR-5 ovarian, 1.87 µM; with SF-268 CNS, 0.806 µM; in the assay on SK-OV-3 ovarian, 0.802 µM. Besides, the TGI was found to be 0.559 µM in the assay with U251 CNS and 1.48 µM with UO-31 renal.
For `CC1CN=C(N(C(=O)Nc2ccccc2)C2CCCCC2)S1` (centres undefined), the TGI was 28.9 µM in the assay with HCT-15 colon; 36.3 µM in the assay with KM12 colon; 29.9 µM in the assay on MDA-MB-231 breast; 28.9 µM in the assay with OVCAR-5 ovarian; 46 µM with SF-268 CNS; above 100 µM with SK-OV-3 ovarian. In addition, the figures for the TGI with U251 CNS and with UO-31 renal were 30.8 µM and 32.3 µM, respectively.
As to `O=S1(=O)OCCOS(=O)(=O)C1S(=O)(=O)c1cccc2ccccc12`, the TGI in the assay on HCT-15 colon, in the assay on KM12 colon, with M14 melanoma, with MDA-MB-231 breast, in the assay with OVCAR-5 ovarian and in the assay with U251 CNS was above 100 µM each time. This molecule showed a TGI with UO-31 renal above 100 µM.
As for `CC(C)(C)C1=CC(O)(c2c3ccccc3c(C3(O)C=C(C(C)(C)C)C(=O)C(C(C)(C)C)=C3)c3ccccc23)C=C(C(C)(C)C)C1=O`, the TGI in the assay with HCT-15 colon, with KM12 colon, in the assay on M14 melanoma, in the assay with MDA-MB-231 breast, with OVCAR-5 ovarian and in the assay with SF-268 CNS was above 100 µM each time. The TGI in the assay on SK-OV-3 ovarian, with U251 CNS and in the assay on UO-31 renal was above 100 µM throughout.
For the molecule `Oc1[nH]c2ccccc2c1N=NC(=S)NCc1ccccn1`, the TGI came to 33.2 µM in the assay on HCT-15 colon; 19.6 µM in the assay on KM12 colon; 4.89 µM with M14 melanoma; 20.8 µM in the assay with MDA-MB-231 breast; 22.7 µM in the assay on OVCAR-5 ovarian; 3.84 µM with SF-268 CNS. Besides, the TGI is 13.8 µM in the assay with SK-OV-3 ovarian, 6.22 µM with U251 CNS and 6.56 µM in the assay with UO-31 renal.
For `COC1OC(=O)C(OC)C(OC)C1OC` (centres undefined), the TGI in the assay on HCT-15 colon, in the assay with KM12 colon, with M14 melanoma, in the assay on MDA-MB-231 breast, in the assay on OVCAR-5 ovarian and in the assay with SF-268 CNS was above 100 µM each time. Further, the TGI in the assay on SK-OV-3 ovarian, in the assay on U251 CNS and with UO-31 renal was above 100 µM each time.
Take `C(=N\Nc1nnc(-c2nnc(N/N=C/c3ccccc3)o2)o1)/c1ccccc1`: the TGI with HCT-15 colon, in the assay on KM12 colon, in the assay on M14 melanoma, with MDA-MB-231 breast, in the assay on OVCAR-5 ovarian and in the assay on RXF 393 renal was above 10 µM in each case. For the same molecule, the TGI with SF-268 CNS, with U251 CNS and in the assay on UO-31 renal was above 10 µM throughout.
On to `Cc1cnc2cc(Cl)ccc2c1SCC(=O)O`, for which the TGI with HCT-15 colon, with KM12 colon, with M14 melanoma, in the assay on MDA-MB-231 breast, with OVCAR-5 ovarian and in the assay on RXF 393 renal was above 100 µM in each case. For the same molecule, the TGI in the assay on SF-268 CNS, with U251 CNS and in the assay with UO-31 renal was above 100 µM throughout.
On to `C/C(=N\Nc1nc2ccccc2n1C)c1ccncn1`, for which the TGI was above 88.1 µM in the assay on HCT-15 colon; 30.7 µM in the assay with KM12 colon; 0.44 µM in the assay on M14 melanoma; above 76.6 µM with MDA-MB-231 breast; above 100 µM with OVCAR-5 ovarian; above 100 µM in the assay on SF-268 CNS. Further, the TGI with SK-OV-3 ovarian was above 100 µM; in the assay with U251 CNS it was above 32.9 µM; in the assay with UO-31 renal, 22.9 µM.
Turning to `N#Cc1c(NC(=S)Nc2ccccc2)sc2c1CCCC2`, the TGI in the assay with HCT-15 colon, in the assay on KM12 colon, in the assay on MDA-MB-231 breast, in the assay with OVCAR-5 ovarian, in the assay on RXF 393 renal and in the assay with SF-268 CNS was above 100 µM in each case. The TGI in the assay with U251 CNS and in the assay with UO-31 renal was above 100 µM throughout.
With `Cc1cccc2c1C(=O)/C(=C/c1ccccc1C(=O)O)C2`, the TGI with HCT-15 colon, in the assay with KM12 colon, in the assay with M14 melanoma, in the assay with OVCAR-5 ovarian, in the assay with RXF 393 renal and in the assay with SF-268 CNS was above 100 µM each time. The TGI in the assay on U251 CNS and in the assay with UO-31 renal was above 100 µM each time.
On to `CC1=CCC(=O)[C@]2(C)C(CC(=O)O)[C@]3(C)C4=C(C)C(c5ccoc5)C[C@@H]4O[C@@H]3[C@H](O)[C@@H]12` (some centres undefined), for which the TGI in the assay on HCT-15 colon, with KM12 colon, in the assay with M14 melanoma, in the assay on MDA-MB-231 breast, in the assay with OVCAR-5 ovarian and in the assay with SF-268 CNS was above 100 µM throughout. In addition, the TGI with SK-OV-3 ovarian, in the assay with U251 CNS and in the assay on UO-31 renal was above 100 µM each time.

For the origin of these results see PubChem BioAssay (NCI).
